Laboratory results taken from patent publication EP0022621A1, “Peptides related to somatostatin, their preparation and pharmaceutical compositions containing them” (ELI LILLY AND COMPANY, priority 1979, dated 1981).
Values joined by “and” are separate entries in the source; they are usually repeats but may differ in a detail not shown here. Identical values can stand only once. Positions of bridges follow the written chain, without caps; N, C: chain ends. No end group written: not given here.

Assays:
[1] = system: growth hormone (GH) secretion; assay: Growth Hormone Inhibition In Rats (pentobarbital-stimulated GH secretion, serum GH by radioimmunoassay); format: in vivo; settings: for GH Serum Conc.: male rats, sodium pentobarbital 4 mg/rat I.P., 20 minutes, Mean ± SEM; for % Inhibition: inhibition of GH release compared to saline controls
Description: A. Growth Hormone Inhibition In Rats:
This test is a modification of the method of P. Brazeau et al. Endocrinology, 94, 184 (1974). Male rats (weighing 100-110 g.) are divided into three groups of eight rats each. Each rat is administered sodium pentobarbital at a dose of 4 mg/rat (I.P.) to stimulate growth hormone (GH) secretion. Simultaneously, one group of rats receives the test compound (S.C.); the second group receives somatostatin (S.C.); and the third group (control) receives saline (S.C.). Twenty- minutes later, the animals are decapitated and blood samples are collected. The serum concentration of growth hormone (GH) is determined by'radioimmunoassay. The mean GH concentration (+ standard error of the mean) is calculated for each group. The percent inhibition of GH release (as compared to saline controls) is then calculated for the test compound and for somatostatin. When tested as above-described, the peptides of Examples 2, 4, 6, 8 and 10, representative of the peptides of Formula III, gave the results set forth below in Table I: […]

glucagon = assay: Insulin and Glucagon Inhibition In Dogs (L-alanine stimulation, serum glucagon by radioimmunoassay); format: in vivo, dog; settings: for Result: inhibition of glucagon: fasted dog, L-alanine infusion; for inhibition of secretion of glucagon: dog stimulated with L-alanine, dose not stated
Description: (§1) B. Insulin and Glucagon Inhibition In Dogs:
(§2) A normal dog is fasted overnight. An intravenous (I.V.) infusion of the test compound (dissolved in saline) is begun. Thirty minutes thereafter an additional infusion of L-alanine (dissolved in saline) is begun and is continued for a total of 15 minutes so that a total dose of about 1 mmole of L-alanine per kg. body weight is given. Infusion of the test compound is continued for an additional 15 minute period.
(§3) Blood samples are taken periodically before (at -20, -10 and -1 minutes) and after (5, 10, 15, 30, 35, 40, 45, 50, 60, 90, 120 and 150 minutes) the start of the infusion of the test compound. The serum insulin and serum glucagon concentrations in the blood are determined by radioimmunoassay. A plot is made of the glucagon and insulin concentrations versus time. The plot obtained from the test compound is compared to plots obtained from somatostatin and saline (controls) in similar experiments.
(§4) Infusion of L-alanine (in the absence of somatostatin or active test compound) causes an abrupt increase in serum insulin and glucagon concentrations. The concentrations return to basal levels after the L-alanine infusion is terminated. Infusion of somatostatin (alone) causes a decrease in basal serum concentrations of insulin and glucagon.

insulin = assay: Insulin and Glucagon Inhibition In Dogs (L-alanine stimulation, serum insulin by radioimmunoassay); format: in vivo, dog; settings: for Result: inhibition of insulin: fasted dog, L-alanine infusion; for inhibition of secretion of insulin: dog stimulated with L-alanine, dose not stated
Description: as §1, §2, §3, §4

[2] = I.V. infusion dose 0.05 µg/kg/min
[3] = infusion alone, without L-alanine, dog
[4] = I.V. infusion dose 0.06 µg/kg/min
[5] = I.V. infusion dose 0.098, 0.181, 0.291 µg/kg/min
[6] = I.V. infusion dose 0.20 µg/kg/min

Row | Substance | GH Serum Conc. ([1]; dose 2 µg/kg S.C.) | GH Serum Conc. ([1]; dose 50 µg/kg S.C.) | % Inhibition ([1]; dose 2 µg/kg S.C.) | % Inhibition ([1]; dose 50 µg/kg S.C.) | Result: inhibition of glucagon (glucagon; [2]) | Result: inhibition of insulin (insulin; [2]) | inhibition of secretion of glucagon (glucagon) | inhibition of secretion of insulin (insulin) | also measured
1 | D-Seryl-glycyl-L-cysteinyl-L-lysyl-L-alanyl-L-phenylalanyl-L-phenylalanyl-D-tryptophyl-L-lysyl-L-threonyl-L-phenylalanyl-L-threonyl-L-seryl-D-cysteine cyclic (3 -> 14) disulfide [Example 6] | 15.5 ± 5.4 ng/mL | 4.0 ± 0.5 ng/mL | 79% | 95% | Significant inhibition of glucagon and insulin | Significant inhibition of glucagon and insulin |  |  | 
2 | D-Alanyl-glycyl-L-cysteinyl-L-lysyl-D-alanyl-L-phenylalanyl-L-phenylalanyl-D-tryptophyl-L-lysyl-L-threonyl-L-cyclohexylalanyl-L-threonyl-L-seryl-D-cysteine cyclic (3 -> 14) disulfide [Example 4] | 5.5 ± 0.7 ng/mL | 8.4 ± 3.4 ng/mL | 95% | 92% | No inhibition of glucagon and insulin | No inhibition of glucagon and insulin | did not inhibit | did not inhibit | 
3 | Somatostatin (AGCKNFFWKTFTSC; disulfide 3-14 (inferred); ends not checked; UniProt P61278 103-116, looked up) [reference compound] |  |  |  | 86.7% and 52.5% and 57.9% and 91% and 93% and 64% and 98% |  |  | inhibits the increase | inhibits the increase | basal serum concentration of glucagon (glucagon; [3]): decrease; basal serum concentration of insulin (insulin; [3]): decrease
4 | D-Seryl-glycyl-L-cysteinyl-L-lysyl-L-alanyl-L- phenylalanyl-L-phenylalanyl-D-tryptophyl-L-lysyl-L-threonyl-L-cyclohexylalanyl-L-threonyl-L-seryl-D- cysteine cyclic (3 -> 14) disulfide [Example 10] | 68.8 ± 28.2 ng/mL | 2.2 ± 0.1 ng/mL | 34% | 98% |  |  |  |  | Result: inhibition of glucagon (glucagon; [4]): Partial inhibition of glucagon and insulatum.; Result: inhibition of insulin (insulin; [4]): Partial inhibition of glucagon and insulatum.
5 | D-Alanyl-glycyl-L-cysteinyl-L-lysyl-D-alanyl-L-phenylalanyl-L-phenylalanyl-D-tryptophyl-L-lysyl-L-threonyl-L-phenylalanyl-L-threonyl-L-seryl-D-cysteine cyclic (3 -> 14) disulfide [Example 2] | 7.1 ± 3.8 ng/mL | 2.0 ± 0.3 ng/mL | 94.9% | 98.6% |  |  | did not inhibit | did not inhibit | GH Serum Conc. ([1]; dose 0.25 µg/kg S.C.): 51.0 ± 14.1 ng/mL; GH Serum Conc. ([1]; dose 1 µg/kg S.C.): 30.6 ± 16.0 ng/mL; GH Serum Conc. ([1]; dose 2.5 µg/kg S.C.): 14.8 ± 10.9 ng/mL; GH Serum Conc. ([1]; dose 25 µg/kg S.C.): 2.8 ± 0.2 ng/mL; % Inhibition ([1]; dose 0.25 µg/kg S.C.): 37.4%; % Inhibition ([1]; dose 1 µg/kg S.C.): 79.8%; % Inhibition ([1]; dose 2.5 µg/kg S.C.): 81.8%; % Inhibition ([1]; dose 25 µg/kg S.C.): 98.2%; Result: inhibition of glucagon (glucagon; [5]): No inhibition of glucagon and insulin; Result: inhibition of insulin (insulin; [5]): No inhibition of glucagon and insulin
6 | D-Seryl-glycyl-L-cysteinyl-L-lysyl-L-alanyl-L-phenylalanyl-L-phenylalanyl-D-tryptophyl-L-lysyl-L-threonyl-D-phenylalanyl-L-threonyl-L-seryl-D-cysteine cyclic (3 -> 14) 4isulfide [Example 8] | 79.6 ± 36.2 ng/mL | 40.0 ± 13.4 ng/mL | 0% | 39% |  |  | did not inhibit | did not inhibit | Result: inhibition of glucagon (glucagon; [6]): No inhibition of glucagon and insulin; Result: inhibition of insulin (insulin; [6]): No inhibition of glucagon and insulin
